These molecules were tested on HCV Replicon IB (assay: HCV replicon assay in Huh-7 cells, genotype 1b (Rluc luciferase readout)). Conditions: HCV1B replicon, Huh-7 cells, 3 days; read-out: EC50_HCV1B_.
Format: cell-based, hepatitis C virus

SMILES	EC50
CC(C)(C)c1cc(C2CC2)cc2c(N)cc(C(=O)NCC3CS(=O)(=O)CCN3)nc12 (stereo not shown) [Compound 334]	1.71 nM
CC(C)(C)c1cc(C2CC2)cc2c(N)cc(-c3nnc(NC[C@@H]4CCCO4)o3)nc12 [Compound 359]	1.21 nM
Cc1cc(-c2nnc(NCC[C@H](C)O)s2)nc2c(C(C)(C)C)cc(C3CC3)cc12 [Compound 385]	1.73 nM
Cc1cc(-c2nnc(NCC[C@H](C)O)s2)nc2c(C(C)(C)C)cc(C3CC3)cc12 [Compound 403]	6.52 nM

Same assay, conditions: Hepatitis C virus, Huh-7, 72 h, HCV1B replicon, Huh-7 cells, 3 days; read-out: EC50_HCV1B_

SMILES	EC50
CC(C)(C)c1cc(C2CC2)cc2c(N)cc(C(=O)NC[C@@H]3CC4(CN3)SCCS4)nc12 [Compound 333]	6.32 nM
CC(C)(C)c1cc(C2CC2)cc2c(N)cc(C(=O)NC[C@H]3CS(=O)(=O)CCN3)nc12 [Compound 335]	3.02 nM
CC(C)(C)c1cc(C2CC2)cc2c(N)cc(C(=O)NC[C@@H]3CSCN3)nc12 [Compound 336]	4.45 nM
CC(C)(C)c1cc(C2CC2)cc2c(N)cc(C(=O)NCC3COC3)nc12 [Compound 337]	69.6 nM
Cc1nnc(-c2cc(OC(F)(F)F)cc3c(Cl)cc(C(=O)NCc4ccccn4)nc23)o1 [Compound 338]	4710 nM
Cc1nnc(-c2cc(OC(F)(F)F)cc3c(N)cc(C(=O)NCc4ccccn4)nc23)[nH]1 [Compound 339]	1230 nM
CCCCNC(=O)[C@@H]1CSC(c2cc(C)c3cc(OC(F)F)cc(C(F)(F)F)c3n2)=N1 [Compound 340]	3900 nM
CNC(=O)[C@@H]1CSC(c2cc(C)c3cc(OC(F)F)cc(C(F)(F)F)c3n2)=N1 [Compound 341]	3530 nM
CC(C)(C)c1cc(C2CC2)cc2c(N)cc(-c3nnc(NCC4OCCO4)o3)nc12 [Compound 342]	2.11 nM
CCCCNc1nnc(-c2cc(N)c3cc(C4CC4)cc(C(C)(C)C)c3n2)o1 [Compound 344]	11 nM
CC(C)(C)c1cc(C2CC2)cc2c(N)cc(-c3nnc(NCC(F)(F)F)o3)nc12 [Compound 345]	560 nM
CC(F)(F)CNc1nnc(-c2cc(N)c3cc(C4CC4)cc(C(C)(C)C)c3n2)o1 [Compound 346]	157 nM
CC(C)(C)c1cc(C2CC2)cc2c(N)cc(-c3nnc(NCc4ccccn4)o3)nc12 [Compound 347]	7.54 nM
CC(C)(C)c1cc(C2CC2)cc2c(N)cc(-c3nnc(NC4CCCC4)o3)nc12 [Compound 348]	5.27 nM
CC(C)(C)c1cc(C2CC2)cc2c(Cl)cc(-c3nnc(Nc4ccccc4)o3)nc12 [Compound 349]	26.9 nM
CC(C)(C)c1cc(C2CC2)cc2c(N)cc(-c3nnc(NC[C@@H]4CCCO4)o3)nc12 [Compound 350]	1.9 nM
CC(C)(C)c1cc(C2CC2)cc2c(N)cc(-c3nnc(NCCS(N)(=O)=O)o3)nc12 [Compound 351]	24.1 nM
CC(C)(C)c1cc(C2CC2)cc2c(N)cc(-c3nnc(NCC4CCCCO4)o3)nc12 (stereo not shown) [Compound 354]	15.3 nM
CC(C)(C)c1cc(C2CC2)cc2c(N)cc(-c3nnc(NCCCCO)o3)nc12 [Compound 355]	3.24 nM
CC(C)(C)c1cc(C2CC2)cc2c(N)cc(-c3nnc(NCCCC(F)(F)F)o3)nc12 [Compound 356]	10.6 nM
CC(C)(C)c1cc(C2CC2)cc2c(N)cc(-c3nnc(Nc4cccc(S(N)(=O)=O)c4)o3)nc12 [Compound 357]	356 nM
CC(C)(C)c1cc(C2CC2)cc2c(NC(=O)CN)cc(-c3nnc(NCC4OCCO4)o3)nc12 [Compound 361]	7.36 nM
CC(C)(C)c1cc(C2CC2)cc2c(N)cc(-c3nnc(NCCCO)o3)nc12 [Compound 365]	4.87 nM
CCCNc1nnc(-c2cc(N)c3cc(C4CC4)cc(C(C)(C)C)c3n2)o1 [Compound 366]	2.01 nM

SMILES	EC50
CC(C)(O)CCNc1nnc(-c2cc(N)c3cc(C4CC4)cc(C(C)(C)C)c3n2)o1 [Compound 367]	2.15 nM
CC(C)(C)c1cc(C2CC2)cc2c(N)cc(-c3nnc(NCC(F)(F)CO)o3)nc12 [Compound 372]	1.95 nM
Nc1nnc(-c2cc(N)c3cc(C4CC4)cc(C(F)(F)F)c3n2)s1 [Compound 373]	65 nM
CC(C)(O)CCNc1nnc(-c2cc(N)c3cc(C4CC4)cc(C(F)(F)F)c3n2)s1 [Compound 374]	62 nM
Nc1cc(-c2nnc(NCCCO)s2)nc2c(C(F)(F)F)cc(C3CC3)cc12 [Compound 375]	9.56 nM
CCCCNc1nnc(-c2cc(N)c3cc(C4CC4)cc(C(C)(C)C)c3n2)s1 [Compound 376]	0.86 nM
CCCCNc1nnc(-c2cc(C)c3cc(C4CC4)cc(C(C)(C)C)c3n2)s1 [Compound 377]	6.23 nM
CCCCNc1nnc(-c2cc(Cl)c3cc(C4CC4)cc(C(C)(C)C)c3n2)s1 [Compound 378]	48.9 nM
Cc1cc(-c2nnc(N)s2)nc2c(C(C)(C)C)cc(C3CC3)cc12 [Compound 379]	1100 nM
Cc1cc(-c2nnc(NCCCO)s2)nc2c(C(C)(C)C)cc(C3CC3)cc12 [Compound 380]	12.7 nM
Cc1cc(-c2nnc(NCC3CC(F)(F)CN3)s2)nc2c(C(C)(C)C)cc(C3CC3)cc12 (stereo not shown) [Compound 381]	2930 nM
Cc1cc(-c2nnc(Nc3cn[nH]c3)s2)nc2c(C(C)(C)C)cc(C3CC3)cc12 [Compound 382]	14.2 nM
CC(C)(O)CCNc1nnc(-c2cc(N)c3cc(C4CC4)cc(C(C)(C)C)c3n2)s1 [Compound 383]	4.85 nM
CC(C)(C)c1cc(C2CC2)cc2c(N)cc(-c3nnc(NCCCO)s3)nc12 [Compound 384]	3.66 nM
Cc1cc(-c2nnc(NCC[C@@H](C)O)s2)nc2c(C(C)(C)C)cc(C3CC3)cc12 [Compound 386]	1.14 nM
CCCNc1nnc(-c2cc(C)c3cc(C4CC4)cc(C(F)(F)F)c3n2)o1 [Compound 387]	3.3 nM
CCCCCNc1nnc(-c2cc(C)c3cc(C4CC4)cc(C(F)(F)F)c3n2)o1 [Compound 388]	13.2 nM
CCCCCCNc1nnc(-c2cc(C)c3cc(C4CC4)cc(C(F)(F)F)c3n2)o1 [Compound 389]	145 nM
Cc1cc(-c2nnc(NC3CCCC3)o2)nc2c(C(F)(F)F)cc(C3CC3)cc12 [Compound 390]	1.75 nM
Cc1cc(-c2nnc(NCCCS(N)(=O)=O)o2)nc2c(C(C)(C)C)cc(C3CC3)cc12 [Compound 393]	1200 nM
Cc1cc(-c2nnc(NCc3ncc[nH]3)o2)nc2c(C(C)(C)C)cc(C3CC3)cc12 [Compound 394]	1130 nM
Cc1cc(-c2nnc(NCCS(N)(=O)=O)o2)nc2c(C(C)(C)C)cc(C3CC3)cc12 [Compound 395]	34.4 nM
Cc1cc(-c2nnc(NC3CNCC3O)o2)nc2c(C(C)(C)C)cc(C3CC3)cc12 (stereo not shown) [Compound 396]	1110 nM
Cc1cc(-c2nnc(NC[C@H]3CCCO3)o2)nc2c(C(C)(C)C)cc(C3CC3)cc12 [Compound 397]	3.17 nM

SMILES	EC50
Cc1cc(-c2nnc(NC[C@@H]3CCCO3)o2)nc2c(C(C)(C)C)cc(C3CC3)cc12 [Compound 398]	3.69 nM
Cc1cc(-c2nnc(NC3CCNC3)o2)nc2c(C(C)(C)C)cc(C3CC3)cc12 (stereo not shown) [Compound 399]	888 nM
Cc1cc(-c2nnc(Nc3cn[nH]c3)o2)nc2c(C(C)(C)C)cc(C3CC3)cc12 [Compound 400]	75.5 nM
Cc1cc(-c2nnc(Nc3ccccn3)o2)nc2c(C(C)(C)C)cc(C3CC3)cc12 [Compound 402]	2.86 nM
Cc1cc(-c2nnc(N(CO)CC3OCCO3)o2)nc2c(C(C)(C)C)cc(C3CC3)cc12 [Compound 404]	2.18 nM
Cc1cc(-c2nnc(N[C@@H]3CCOC3)o2)nc2c(C(C)(C)C)cc(C3CC3)cc12 [Compound 405]	5.25 nM
Cc1cc(-c2nnc(NCCC(C)(C)O)o2)nc2c(C(C)(C)C)cc(C3CC3)cc12 [Compound 409]	9.43 nM
Cc1cc(-c2nnc(NCC3OC[C@H](C)O3)o2)nc2c(C(C)(C)C)cc(C3CC3)cc12 (stereo partly shown) [Compound 412]	36.2 nM
Cc1cc(-c2nnc(NCC3O[C@H]4COC[C@H]4O3)o2)nc2c(C(C)(C)C)cc(C3CC3)cc12 (stereo partly shown) [Compound 413]	311 nM
Cc1cc(-c2nnc(N[C@H]3CC[C@@H](O)C3)o2)nc2c(C(C)(C)C)cc(C3CC3)cc12 [Compound 414]	1.74 nM
Cc1cc(-c2nnc(NCC3COC(C)(C)O3)o2)nc2c(C(C)(C)C)cc(C3CC3)cc12 (stereo not shown) [Compound 415]	85 nM
Cc1cc(-c2nnc(NC[C@H]3C[C@@H](O)C3)o2)nc2c(C(C)(C)C)cc(C3CC3)cc12 [Compound 417]	6.11 nM
Cc1cc(-c2nnc(NC[C@H]3C[C@H](O)C3)o2)nc2c(C(C)(C)C)cc(C3CC3)cc12 [Compound 418]	4.58 nM
Cc1cc(-c2nnc(NCC3CNC(=O)O3)o2)nc2c(C(C)(C)C)cc(C3CC3)cc12 (stereo not shown) [Compound 419]	43.9 nM
Cc1cc(-c2nnc(NC3CC(O)C3)o2)nc2c(C(C)(C)C)cc(C3CC3)cc12 (stereo not shown) [Compound 420]	3.1 nM
Cc1cc(-c2nnc(N[C@H]3C[C@@H](O)C3)o2)nc2c(C(C)(C)C)cc(C3CC3)cc12 [Compound 421]	3.24 nM
Cc1cc(-c2nnc(N[C@H]3C[C@H](O)C3)o2)nc2c(C(C)(C)C)cc(C3CC3)cc12 [Compound 422]	5.55 nM
Cc1cc(-c2nnc(N[C@H]3C[C@@](C)(O)C3)o2)nc2c(C(C)(C)C)cc(C3CC3)cc12 [Compound 423]	1.35 nM
Cc1cc(C(=O)NCC2COC2)nc2c(C(C)(C)C)cc(C3CC3)cc12 [Compound 424]	488 nM
CO[C@H]1CN[C@H](CNC(=O)c2cc(C)c3cc(C4CC4)cc(C(C)(C)C)c3n2)C1 [Compound 425]	12.4 nM
Cc1cc(C(=O)NC[C@@H]2CS(=O)(=O)CCN2)nc2c(C(C)(C)C)cc(C3CC3)cc12 [Compound 426]	6.27 nM
Cc1cc(C(=O)NC[C@@H]2CSCN2)nc2c(C(C)(C)C)cc(C3CC3)cc12 [Compound 427]	7.44 nM

Same assay, conditions: Hepatitis C virus, Huh-7, 72 h, read-out: EC50_HCV1B_(nM)

SMILES	EC50
CC(C)(C)c1cc(C2CC2)cc2c(N)cc(C(=O)NC[C@@H]3CC4(CN3)OCCO4)nc12 [Compound 332]	3.07 nM

Same assay, conditions: Hepatitis C virus, Huh-7, 72 h; read-out: EC50_HCV1B_

SMILES	EC50
CC(C)(C)c1cc(C2CC2)cc2c(NC(=O)CN)cc(-c3nnc(NC4CCCC4)o3)nc12 [Compound 360]	44.1 nM

Reference: US20120053148A1, “INHIBITORS OF HEPATITIS C VIRUS” (GILEAD SCIENCES, INC., priority 2010, published 2012)
